Test results: PubChem BioAssay (NCI)
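The concentration for 50% growth inhibition is given as GI50. TGI: total growth inhibition.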

Key:
Assay in all cases: DTP human tumour cell line panel, 384-well format
[1] = system: KM12 colon
[2] = system: ACHN renal
[3] = system: A498 renal
[4] = system: MCF7 breast
[5] = system: M14 melanoma
[6] = system: HL-60(TB) leukemia
[7] = system: TK-10 renal
[8] = system: RXF 393 renal
[9] = system: COLO 205 colon
[10] = system: UACC-62 melanoma
[11] = system: SK-MEL-28 melanoma
[12] = system: SK-MEL-5 melanoma
[13] = system: MDA-MB-435 melanoma
[14] = system: NCI/ADR-RES ovarian
[15] = system: SF-268 CNS
[16] = system: MDA-MB-468 breast
[17] = system: HCT-116 colon
[18] = system: SK-OV-3 ovarian
[19] = system: UACC-257 melanoma
[20] = system: SK-MEL-2 melanoma
[21] = system: HT29 colon
[22] = system: SF-539 CNS
[23] = system: EKVX NSCLC
[24] = system: NCI-H23 lung
[25] = system: NCI-H460 NSCLC
[26] = system: LOX IMVI melanoma
[27] = system: SNB-19 CNS
[28] = system: CCRF-CEM leukemia
[29] = system: NCI-H226 lung
[30] = system: DU-145 prostate
[31] = system: MOLT-4 leukemia
[32] = system: SN12C renal
[33] = system: CAKI-1 renal
[34] = system: SF-295 CNS
[35] = system: OVCAR-3 ovarian
[36] = system: OVCAR-4 ovarian
[37] = system: NCI-H522 lung
[38] = system: SNB-75 CNS
[39] = system: IGROV1 ovarian
[40] = system: RPMI-8226 leukemia
[41] = system: SW-620 colon
[42] = system: 786-0 renal
[43] = system: A549 NSCLC
[44] = system: HCT-15 colon
[45] = system: HOP-62 NSCLC
[46] = system: PC-3 prostate
[47] = system: MALME-3M melanoma
[48] = system: K-562 leukemia
[49] = system: OVCAR-8 ovarian
[50] = system: NCI-H322M lung
[51] = system: HCC-2998 colon
[52] = system: BT-549 breast
[53] = system: HS 578T breast
[54] = system: U251 glioblastoma

## CCOC(=O)c1cc(/C=C/c2ccc(Cl)cc2Cl)on1
[1]
  GI50: 932 nM
  TGI: 3.93 µM
[2]
  GI50: 1860 nM
  TGI: 3.39 µM
[3]
  GI50: 1850 nM
  TGI: 3.33 µM
[4]
  GI50: 662 nM
  TGI: 2810 nM
[5]
  GI50: 3.27 µM
  TGI: 8.82 µM
[6]
  GI50: 818 nM
  TGI: 2040 nM
[7]
  GI50: 2370 nM
  TGI: 4.71 µM
[8]
  GI50: 1990 nM
  TGI: 3.46 µM
[9]
  GI50: 2720 nM
  TGI: 6.54 µM
[10]
  GI50: 2080 nM
  TGI: 4.26 µM
[11]
  GI50: 2420 nM
  TGI: 4.39 µM
[12]
  GI50: 1770 nM
  TGI: 3.53 µM
[13]
  GI50: 3.41 µM
  TGI: 11.3 µM
[14]
  GI50: 1840 nM
  TGI: 3.3 µM
[15]
  GI50: 4.09 µM
  TGI: 13.5 µM
[16]
  GI50: 2280 nM
  TGI: 3.94 µM
[17]
  GI50: 740 nM
  TGI: 2040 nM
[18]
  GI50: 2010 nM
  TGI: 4.15 µM
[19]
  GI50: 2950 nM
  TGI: 5.65 µM
[20]
  GI50: 2120 nM
  TGI: 4.35 µM
[21]
  GI50: 1920 nM
  TGI: 4.22 µM
[22]
  GI50: 945 nM
  TGI: 2190 nM
[23]
  GI50: 2700 nM
  TGI: 8.84 µM
[24]
  GI50: 2340 nM
  TGI: 5.29 µM
[25]
  GI50: 1220 nM
  TGI: 2590 nM
[26]
  GI50: 1910 nM
  TGI: 3.63 µM
[27]
  GI50: 3.1 µM
  TGI: 8.17 µM
[28]
  GI50: 1130 nM
  TGI: 2370 nM
[29]
  GI50: 1960 nM
  TGI: 3.83 µM
[30]
  GI50: 4.46 µM
  TGI: > 100 µM
[31]
  GI50: 1030 nM
  TGI: 2210 nM
[32]
  GI50: 1810 nM
  TGI: 3.32 µM
[33]
  GI50: 1770 nM
  TGI: 3.91 µM
[34]
  GI50: 2470 nM
  TGI: 5.3 µM
[35]
  GI50: 1850 nM
  TGI: 3.55 µM
[36]
  GI50: 2630 nM
  TGI: 7.19 µM
[37]
  GI50: 2020 nM
  TGI: 3.51 µM
[38]
  GI50: 3.2 µM
  TGI: 6.12 µM
[39]
  GI50: 2090 nM
  TGI: 4.34 µM
[40]
  GI50: 471 nM
  TGI: 1250 nM
[41]
  GI50: 1360 nM
  TGI: 3.02 µM
[42]
  GI50: 1840 nM
  TGI: 3.35 µM
[43]
  GI50: 2440 nM
  TGI: 6.1 µM
[44]
  GI50: 1360 nM
  TGI: 4.34 µM
[45]
  GI50: 469 nM
  TGI: 2830 nM
[46]
  GI50: 1970 nM
  TGI: 4.05 µM
[47]
  GI50: 2390 nM
  TGI: 4.05 µM
[48]
  GI50: 10.7 µM
  TGI: 30.8 µM
[49]
  GI50: 649 nM
  TGI: 11 µM
[50]
  GI50: 4.04 µM
  TGI: 14.1 µM
[51]
  GI50: 1960 nM
  TGI: 3.97 µM
[52]
  GI50: 2110 nM
  TGI: 4.35 µM
[53]
  GI50: 1970 nM
  TGI: 3.54 µM
[54]
  GI50: 1270 nM
  TGI: 3.3 µM
